According to patent publication EP1137645B1, “ALPHA-METHYLBENZYL-CONTAINING THIOUREA INHIBITORS OF HERPES VIRUSES CONTAINING A […] GROUP” (Wyeth, priority 1998, dated 2000):
In brackets after ≈: the same amount, converted by molar mass. Read-outs that look alike come from different tables or passages of the source.

Columns and labels:
VZV strain Ellen = experiment: VZV antiviral (ELISA) assay; format: cell-based
Summary of the method: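 HFF cells infected with VZV Ellen at multiplicity below 0.1 overnight, then mixed infected/uninfected cells seeded with compound in DMEM/2% FBS and incubated three days at 37°C, 5% CO2.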

HSV- I = experiment: HSV antiviral (ELISA) assay; format: cell-based; conditions: read-out: IC50 (ug/ml) HSV
Summary of the method: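 Vero cells in DMEM with 2% FBS treated with compound 30 min before HSV-1 infection (MOI 0.006), then incubated ~24 h at 37°C. Viral replication measured by ELISA against glycoprotein D with β-galactosidase-linked secondary and fluorogenic substrate (ex 365/em 450 nm); IC50 relative to untreated fluorescence.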

[1] = system: HCMV recombinant mutant virus whose genome contains the prokaryotic beta-glucuronidase gene; experiment: microbe, parasite or virus in culture; format: cell-based, human cytomegalovirus; conditions: Human betaherpesvirus 5, Fibroblast
Summary of the method: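 Human foreskin fibroblasts infected with HCMV recombinant carrying beta-glucuronidase under a viral promoter (e.g. RV145) in presence of compound. At 96 h post-infection, lysates assayed for beta-glucuronidase by colorimetric or fluorogenic substrate as replication readout; IC50 estimated from varying compound amounts.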

[2] = Human alphaherpesvirus 3, HFF, read-out: IC50 (ug/ml) VZV, VZV strain Ellen, HFF cells, ELISA
[3] = read-out: IC50 ug/ml HCMV, HCMV, human foreskin fibroblasts
[4] = Human alphaherpesvirus 3, HFF, read-out: % inhibition 10 ug/ml VZV
[5] = Human alphaherpesvirus 3, HFF, read-out: IC50 (ug/ml) VZV
[6] = Human alphaherpesvirus 3, VZV strain Ellen, HFF cells, ELISA, read-out: IC50 (ug/ml) VZV
[7] = Human alphaherpesvirus 3, read-out: % inhibition 10 ug/ml VZV, 10 ug/ml, VZV strain Ellen, HFF cells, ELISA

Structure (SMILES)	IC50 (VZV strain Ellen; [2])	IC50 (HSV- I; Vero)	IC50 [1, 3]	inhibition at 10 µg/mL (VZV strain Ellen; [4])	IC50 (VZV strain Ellen; [5])	IC50 (HSV- I; HSV- I, Vero cells, ELISA)	IC50 (VZV strain Ellen; [6])	IC50 ([1]; read-out: IC50 ug/ml HCMV)	inhibition at 10 µg/mL (VZV strain Ellen; [7])
CC(NC(=S)Nc1ccc(NC(=O)c2ccc(Cl)cc2)cc1)c1ccc(F)cc1 (centres unmarked) [Example 756, 4-Chloro-N-(4-{3-[1-(4-fluoro-phenyl)-ethyl]-thioureido}-phenyl)-benzamide]	0.3 µg/mL (≈ 0.701 µM)	> 10 µg/mL	> 10 µg/mL						
COc1cc(OC)c(NC(=S)Nc2ccc(NC(=O)c3cccc(OCc4ccccc4)c3)cc2)cc1Cl [Example 210, 3-Benzyloxy-N-{4-[3-(5-chloro-2,4-dimethoxy-phenyl)-thioureido]-phenyl}-benzamide]			> 10 µg/mL	14%	> 10 µg/mL	5 µg/mL (≈ 9.12 µM)			
CCN(CC)CC(=O)Nc1ccc(NC(=S)Nc2ccc(NC(=O)c3ccccc3F)cc2)cc1Cl [Example 414, N-(4-{3-[3-Chloro-4-(2-diethylamino-acetylamino)-phenyl]-thioureido}-phenyl)-2-fluoro-benzamide]			> 10 µg/mL	70%	> 15 µg/mL	6 µg/mL (≈ 11.4 µM)			
O=C(Nc1ccc(NC(=S)Nc2ccc(F)c(Cl)c2)cc1)c1ccccc1F [Example 922, N-{4-[3-(3-Chloro-4-fluoro-phenyl)-thioureido]-phenyl}-2-fluoro-benzamide]			> 10 µg/mL	40%	> 10 µg/mL	1 µg/mL (≈ 2.39 µM)			
CC(NC(=S)Nc1ccc(NC(=O)c2ccc(C(F)(F)F)cc2)cc1)c1ccc(F)cc1 (centres unmarked) [Example 1021, N-(4-{3-[1-(4-Fluoro-phenyl)-ethyl]-thioureido}-phenyl)-4-trifluoromethyl-benzamide]						> 10 µg/mL	0.4 µg/mL (≈ 0.867 µM)	> 10 µg/mL	
O=C(Nc1ccc(NC(=S)Nc2ccc(Br)c(Cl)c2)cc1)c1ccccc1F [Example 915, N-{4-[3-(4-Bromo-3-chloro-phenyl)-thioureido]-phenyl}-2-fluoro-benzamide]						> 10 µg/mL	> 10 µg/mL	> 10 µg/mL	29%
CSc1ccc(NC(=S)Nc2ccc(NC(=O)c3ccccc3C)cc2)cc1Cl [Example 342, N-{4-[3-(3-Chloro-4-methylsulfanyl-phenyl)-thioureido]-phenyl}-2-methyl-benzamide]			1.4 µg/mL (≈ 3.17 µM)	62%	> 10 µg/mL	0.2 µg/mL (≈ 0.452 µM)			
COc1c(Cl)cc(NC(=S)Nc2ccc(NC(=O)c3ccccc3F)cc2)cc1Cl [Example 874, N-{4-[3-(3,5-Dichloro-4-methoxy-phenyl)-thioureido]-phenyl}-2-fluoro-benzamide]			0.2 µg/mL (≈ 0.431 µM)	75%	3.5 µg/mL (≈ 7.54 µM)	5 µg/mL (≈ 10.8 µM)			
O=C(Nc1ccc(NC(=S)NC(CO)c2ccccc2)cc1)c1ccccc1F (centres unmarked) [Example 797, 2-Fluoro-N-{4-[3-(2-hydroxy-1-phenyl-ethyl)-thioureido]-phenyl}-benzamide]						> 10 µg/mL	1.7 µg/mL (≈ 4.15 µM)	> 10 µg/mL	
COc1cc(OC)c(NC(=S)Nc2ccc(NC(=O)c3ccccc3Cl)cc2)cc1Cl [Example 141, 2-Chloro-N-{4-[3-(5-chloro-2,4-dimethoxy-phenyl)-thioureido]-phenyl}-benzamide]			6 µg/mL (≈ 12.6 µM)	40%	> 10 µg/mL	0.25 µg/mL (≈ 0.525 µM)			
NC(=O)c1cccc(NC(=S)Nc2ccc(NC(=O)c3ccccc3F)cc2)c1 [Example 952, N-[4-[[[[3-(Aminocarbonyl)phenyl]amino]thioxomethyl]amino]phenyl]-2-fluoro-benzamide]						> 10 µg/mL	> 10 µg/mL	> 10 µg/mL	22%
COc1cc(OC)c(NC(=S)Nc2ccc(NC(=O)c3ccccc3F)c(C(=O)c3ccccc3)c2)cc1Cl [Example 293, N-{2-Benzoyl-4-[3-(5-chloro-2,4-dimethoxy-phenyl)-thioureido]-phenyl}-2-fluoro-benzamide]			> 10 µg/mL	2%	> 10 µg/mL	> 50 µg/mL			
Nc1c(Br)cc(NC(=S)Nc2ccc(NC(=O)c3ccccc3F)cc2)cc1Br [Example 519, N-{4-[3-(4-Amino-3,5-dibromo-phenyl)-thioureido]-phenyl}-2-fluoro-benzamide]						0.4 µg/mL (≈ 0.743 µM)	> 10 µg/mL	1.7 µg/mL (≈ 3.16 µM)	18%
COc1ccc(C(=O)Nc2ccc(NC(=S)NC(C)c3ccc(F)cc3)cc2)cc1 (centres unmarked) [Example 754, N-(4-{3-[1-(4-Fluoro-phenyl)-ethyl]-thioureido}-phenyl)-4-methoxy-benzamide]	0.2 µg/mL (≈ 0.472 µM)	> 10 µg/mL	> 10 µg/mL						
CC(NC(=S)Nc1ccc(NC(=O)c2ccccc2F)cc1)c1ccccc1Br (centres unmarked) [Example 783, N-(4-{3-[1-(2-Bromo-phenyl)-ethyl]-thioureido}-phenyl)-2-fluoro-benzamide]	0.3 µg/mL (≈ 0.635 µM)	> 10 µg/mL	1.1 µg/mL (≈ 2.33 µM)						
COc1cc(OC)c(NC(=S)Nc2ccc(NC(=O)c3ccccc3C(F)(F)F)cc2)cc1Cl [Example 138, N-{4-[3-(5-Chloro-2,4-dimethoxy-phenyl)-thioureido]-phenyl}-2-trifluoro-methyl-benzamide]			8 µg/mL (≈ 15.7 µM)	57%	> 10 µg/mL	1 µg/mL (≈ 1.96 µM)			
CC(NC(=S)Nc1ccc(NC(=O)c2nccc3ccccc23)cc1)c1ccc(C#N)cc1 (centres unmarked) [Example 979, Isoquinoline-1-carboxylic acid (4-{3-[1-(4-cyano-phenyl)-ethyl]-thioureido}-phenyl)-amide]	0.13 µg/mL (≈ 0.288 µM)	> 10 µg/mL	3.7 µg/mL (≈ 8.19 µM)						
COc1ccc(NC(=S)Nc2ccc(NC(=O)c3cccc(F)c3)cc2)cc1Cl [Example 822, N-{4-[3-(3-Chloro-4-methoxy-phenyl)-thioureido]-phenyl}-3-fluoro-benzamide]			3 µg/mL (≈ 6.98 µM)	0%	> 10 µg/mL	3 µg/mL (≈ 6.98 µM)			
CC(NC(=S)Nc1ccc(NC(=O)c2ccc(C#N)cc2)cc1)c1ccc(F)cc1 (centres unmarked) [Example 1022, 4-Cyano-N-(4-{3-[1-(4-fluoro-phenyl)-ethyl]-thioureido}-phenyl)-benzamide]						> 10 µg/mL	1.5 µg/mL (≈ 3.58 µM)	4.4 µg/mL (≈ 10.5 µM)	
O=C(CN1CCCCC1)Nc1ccc(NC(=S)Nc2ccc(NC(=O)c3ccccc3F)cc2)cc1Cl [Example 364, N-(4-{3-[3-Chloro-4-(2-piperidin-1-yl-acetylamino)-phenyl]-thioureido}-phenyl)-2-fluoro-benzamide]			> 10 µg/mL	73%	> 15 µg/mL	> 10 µg/mL			
O=C(CN1CCSCC1)Nc1ccc(NC(=S)Nc2ccc(NC(=O)c3ccccc3F)cc2)cc1Cl [Example 407, N-(4-{3-[3-Chloro-4-(2-thiomorpholin-4-yl-acetylamino)-phenyl]-thioureido}-phenyl)-2-fluoro-benzamide]			> 10 µg/mL	87%	0.7 µg/mL (≈ 1.25 µM)	4 µg/mL (≈ 7.17 µM)			
O=C(Nc1ccc(NC(=S)Nc2ccc(OCC(F)(F)F)cc2OCC(F)(F)F)cc1)c1ccccc1F [Example 1010, N-(4-{3-[2,4-Bis-(2,2,2-trifluoro-ethoxy)-phenyl]-thioureido}-phenyl)-2-fluoro-benzamide]						> 10 µg/mL	> 10 µg/mL	> 10 µg/mL	
COc1ccccc1C(=O)Nc1ccc(NC(=S)NC(C)c2cc3ccccc3o2)cc1 (centres unmarked) [Example 1018, N-{4-[3-(1-Benzofuran-2-yl-ethyl)-thioureido]-phenyl}-2-methoxy-benzamide]	0.09 µg/mL (≈ 0.202 µM)	> 10 µg/mL	> 10 µg/mL						
COc1cccc(C(=O)Nc2ccc(NC(=S)NC(C)c3ccc(F)cc3)cc2)c1 (centres unmarked) [Example 753, N-(4-{3-[1-(4-Fluoro-phenyl)-ethyl]-thioureido}-phenyl)-3-methoxybenzamide]	> 7.5 µg/mL	> 10 µg/mL	> 0.5 µg/mL						
COc1cc(OC)c(NC(=S)Nc2ccc(NC(=O)c3cccc4ccccc34)cc2)cc1Cl [Example 157, Naphthalene-1-carboxylic acid {4-[3-(5-chloro-2,4-dimethoxy-phenyl)-thioureido]-phenyl}-amide]			8 µg/mL (≈ 16.3 µM)	32%	> 10 µg/mL	0.9 µg/mL (≈ 1.83 µM)			
O=C(Nc1ccc(NC(=S)NCc2ccccc2)cc1)c1ccccc1F [Example 536, N-[4-(3-Benzyl-thioureido)-phenyl]-2-fluoro-benzamide]						> 10 µg/mL	> 10 µg/mL	> 10 µg/mL	
O=C(CN1CCCCCC1)Nc1ccc(NC(=S)Nc2ccc(NC(=O)c3ccccc3F)cc2)cc1Cl [Example 423, N-(4-{3-[4-(2-Azepan-1-yl-acetylamino)-3-chloro-phenyl]-thioureido}-phenyl)-2-fluoro-benzamide]			1 µg/mL (≈ 1.8 µM)	87%	0.9 µg/mL (≈ 1.62 µM)	4 µg/mL (≈ 7.22 µM)			
COc1cccc(C(=O)Nc2ccc(NC(=S)Nc3cc(Cl)c(OC)cc3OC)cc2)c1 [Example 120, N-{4-[3-(5-Chloro-2,4-dimethoxy-phenyl)-thioureido]-phenyl}-3-methoxy-benzamide]			5 µg/mL (≈ 10.6 µM)	25%	> 10 µg/mL	0.8 µg/mL (≈ 1.7 µM)			
